Measured values taken from patent US20110052674A1, “ANGIOTENSIN II RECEPTOR BLOCKER DERIVATIVES” (MERCK SHARP & DOHME CORP., priority 2008, published 2011).
In brackets after ≈: the same amount, converted by molar mass.

Columns and labels:
[1] = test system: isolated rabbit thoracic aorta preparations; test: Studies on vascular tone: vasorelaxation in isolated rabbit thoracic aorta preparations; format: cell-based; conditions: vasorelaxation of rabbit aortic rings precontracted with noradrenaline 1 μM, functional endothelium; for EC50: Oryctolagus cuniculus, read-out: EC50 (μM) ± sem
Method: The ability of ARB nitroderivatives to induce vasorelaxation in comparison to native ARBs, was tested in vitro in isolated rabbit thoracic aorta preparations (Wanstall J. C. et al., Br. J. Pharmacol., 134:463-472, 2001). Male New Zealand rabbits were anaesthetized with thiopental-Na (50 mg/kg, iv), sacrificed by exsanguinations and then the thorax was opened and the aorta dissected. Aortic ring preparations (4 mm in length) were set up in physiological salt solution (PSS) at 37° C. in small organ chambers (5 ml). The composition of PSS was (mM): NaCl 130, NaHCO3 14.9, KH2PO4 1.2, MgSO4 1.2, HEPES 10, CaCl2, ascorbic acid […] and glucose […] (95% O2/5% CO2; pH 7.4). Each ring was mounted under 2 g passive tension. Isometric tension was recorded with a Grass transducer (Grass FT03) attached to a BIOPAC MP150 System. Preparations were allowed to equilibrate for 1 h, and then contracted submaximally with noradrenaline (NA, 1 μM) and, when the contraction was stable, acetylcholine (ACh, 10 μM) was added. A relaxant response to ACh indicated the presence of a functional endothelium. […] When a stable precontraction was reached, a cumulative concentration-response curve to either of the vasorelaxant agents was obtained in the presence of a functional endothelium. Each arterial ring was exposed to only one combination of inhibitor and vasorelaxant. Moreover, the effect of the soluble guanylyl cyclase inhibitor ODQ (1-H-(1,2,4)-oxadiazol(4,3-a)quinoxalin-1-one) on vasorelaxation elicited by the compounds was examined preincubating the aortic rings with ODQ (10 μM) for 20 min.
Responses to relaxing agents are expressed as a percentage of residual contraction and plotted against concentration of test compound. EC50 values (where EC50 is the concentration producing 50% of the maximum relaxation to the test compound) were interpolated from these plots. During the experimental period, the plateau obtained with NA was stable without significant spontaneous loss of contraction in the aortic rings.
Furthermore, in experiments performed in the presence of ODQ (10 μM), the vasorelaxant responses to tested compounds were inhibited.

[2] = Solubility test in PEG 400/H2O 7/3; format: physicochemical; conditions: PEG 400/H2O 7/3, aqueous with cosolvent or surfactant or cyclodextrin, thermodynamic from solid; PEG400/H2O 70:30, 5.0 mg in 1 ml, mixed 1 hour, filtered; read-out: Solubility PEG400/H2O 70:30 (mg/ml) target 5 mg/ml
Method: The solubility of the tested compounds in PEG 400/H2O 7/3 was evaluated using a standard curve constructed of six calibration points by plotting the peak areas of the compounds of the invention versus the concentration.
Test solution: 5.0 mg of the nitroderivative were dissolved in 0.7 ml of PEG 400 in a glass volumetric flask and 0.3 ml of water were added. The solution was mixed for 1 hour and filtered through 0.45 μm Acrodisc filter.

[3] = test system: spontaneously hypertensive rats (SHRs); test: Antihypertensive activity in vivo in conscious spontaneously hypertensive rats; design: species or system rat; conditions: SHR, 10 mpk po single dose, delta vs baseline, telemetry (EXP 3174: tail-cuff method)
Method: The ability of the compounds of the invention to decrease blood pressure was evaluated in conscious spontaneously hypertensive rats (SHRs). SHRs (250-300 g) received a single oral dose of EXP 3174 or the corresponding nitroderivative. Systolic blood pressure (SBP) and heart rate were monitored by telemetry for 24 hours after dosing. SBP was evaluated before (baseline) and after (i.e. 6, 24 hours) treatment by oral administration of the compounds. The data were processed both as the absolute value or as a delta between the absolute value and its own baseline.
The Dataquest IV telemetry system (Data Sciences International) was used for measurement of systolic pressure, diastolic pressure, mean arterial pressure, heart rate, and motor activity. The monitoring system consists of a transmitter (radio frequency transducer model TA11PA), receiver panel, consolidation matrix, and personal computer with accompanying software. Before the device was implanted, calibrations were verified to be accurate within ±3 mmHg. Rats were anesthetized with ketamine/xylazine/acepromazine, and the flexible catheter of the transmitter was surgically secured in the abdominal aorta just below the renal arteries. The transmitter was sutured subcutaneously. Rats were housed in individual cages after the operation. Each cage was placed over the receiver panel that was connected to the personal computer for data acquisition. The rats were unrestrained and free to move within their cages. Hemodynamic data were sampled every 2 minutes for 10 seconds.

SMILES	EC50 [1] [µM]	solubility at 1 h [2] [mg/mL]	EC50 (μM) ± sem [1]	Δ Systolic blood pressure (mmHg) 6 hrs [3] [mmHg]	Δ Systolic blood pressure (mmHg) 24 hrs [3] [mmHg]
CCCCc1nc(Cl)c(C(=O)N[C@@H](Cc2ccccc2)C(=O)OCCCCC(CO[N+](=O)[O-])O[N+](=O)[O-])n1Cc1ccc(-c2ccccc2-c2nnn[nH]2)cc1 (stereo in doubt) [EX. 9, (S)-(5,6-bis(nitrooxy)hexyl) 2-(1-((2′-(1H-tetrazol-5-yl)biphenyl-4-yl)methyl)-2-butyl-4-chloro-1H-imidazole-5-carboxamido)-3-phenylpropanoate]	3.4 ± 0.8	4.9 (≈ 6.2 mM)	–	–	–
CCCCc1nc(Cl)c(C(=O)NCC(=O)OCc2ccc(CO[N+](=O)[O-])cc2)n1Cc1ccc(-c2ccccc2-c2nnn[nH]2)cc1 [(46), 4-(nitrooxymethyl)benzyl 2-(1-((2′-(2H-tetrazol-5-yl)biphenyl-4-yl)methyl)-2-butyl-4-chloro-1H-imidazole-5-carboxamido)acetate]	–	5.07 (≈ 7.69 mM)	–	–	–
CCOc1nc2cccc(C(=O)O)c2n1Cc1ccc(-c2ccccc2-c2nnn[nH]2)cc1 [Candesartan, reference compound]	–	–	no effect	–	–
CCCCc1nc(Cl)c(COC(=O)N[C@H](COC(=O)CCCO[N+](=O)[O-])Cc2ccccc2)n1Cc1ccc(-c2ccccc2-c2nnn[nH]2)cc1 [EX. 2, (S)-2-(((1-((2′-(1H-tetrazol-5-yl)biphenyl-4-yl)methyl)-2-butyl-4-chloro-1H-imidazol-5-yl)methoxy)carbonylamino)-3-phenylpropyl 4-(nitrooxy)butanoate]	40.1 ± 2.7	> 5	–	–	–
CCCCc1nc(Cl)c(COC(=O)NCC(=O)OCCCCO[N+](=O)[O-])n1Cc1ccc(-c2ccccc2-c2nnn[nH]2)cc1 [EX. 3, 4-(nitrooxy)butyl 2-(((1-((2′-(1H-tetrazol-5-yl)biphenyl-4-yl)methyl)-2-butyl-4-chloro-1H-imidazol-5-yl)methoxy)carbonylamino)acetate]	9.2 ± 4.1	> 5	–	–	–
CCCCc1nc(Cl)c(C(=O)NCC(=O)OCCCCO[N+](=O)[O-])n1Cc1ccc(-c2ccccc2-c2nnn[nH]2)cc1 [EX. 5, 4-(Nitrooxy)butyl 2-(1-((2′-(1H-tetrazol-5-yl)biphenyl-4-yl)methyl)-2-butyl-4-chloro-1H-imidazole-5-carboxamido)acetate]	9.2 ± 2.5	4.2 (≈ 6.87 mM)	–	−7	−11
CCCCc1nc(Cl)c(C(=O)N[C@@H](Cc2ccccc2)C(=O)OCCCCO[N+](=O)[O-])n1Cc1ccc(-c2ccccc2-c2nnn[nH]2)cc1 [EX. 6]	14.2 ± 8	> 5	–	−12	−13
CCCCc1nc(Cl)c(C(=O)N[C@@H](CC(=O)OCCCCO[N+](=O)[O-])C(=O)OCCCCO[N+](=O)[O-])n1Cc1ccc(-c2ccccc2-c2nn[nH]n2)cc1 [EX. 8, (S)-bis(4-(nitrooxy)butyl) 2-(1-((2′-(2H-tetrazol-5-yl)biphenyl-4-yl)methyl)-2-butyl-4-chloro-1H-imidazole-5-carboxamido)succinate]	10.4 ± 2.5	–	–	–	–
CCCCc1nc(Cl)c(C(=O)N[C@@H](CCC(=O)OCCCCO[N+](=O)[O-])C(=O)OCCCCO[N+](=O)[O-])n1Cc1ccc(-c2ccccc2-c2nn[nH]n2)cc1 [EX. 10]	5.4 ± 1.8	–	–	−6	−11
CCCCc1nc(Cl)c(C(=O)NCC(=O)NCCCCO[N+](=O)[O-])n1Cc1ccc(-c2ccccc2-c2nnn[nH]2)cc1 [EX. 11, 4-(2-(1-((2′-(1H-tetrazol-5-yl)biphenyl-4-yl)methyl)-2-butyl-4-chloro-1H-imidazole-5-carboxamido)acetamido)butyl nitrate]	38.7 ± 5.3	4.6	–	−6	−17

Now from value to compound, other results behind:

EC50 [1] [µM]	solubility at 1 h [2] [mg/mL]	EC50 (μM) ± sem [1]	SMILES	Δ Systolic blood pressure (mmHg) 6 hrs [3] [mmHg]	Δ Systolic blood pressure (mmHg) 24 hrs [3] [mmHg]
23.6 ± 3.9	4 (≈ 6.24 mM)	–	CCCCc1nc(Cl)c(COC(=O)NCCOC(=O)CCCO[N+](=O)[O-])n1Cc1ccc(-c2ccccc2-c2nnn[nH]2)cc1 [EX. 1, 2-(((1-((2′-(1H-tetrazol-5-yl)biphenyl-4-yl)methyl)-2-butyl-4-chloro-1H-imidazol-5-yl)methoxy)carbonylamino)ethyl 4-(nitrooxy)butanoate]	–	–
46 ± 7.2	–	–	CCCCc1nc(Cl)c(COC(=O)N[C@@H](CCCCN)C(=O)OCCCCO[N+](=O)[O-])n1Cc1ccc(-c2ccccc2-c2nnn[nH]2)cc1 [EX. 4, 4-(nitrooxy)butyl 2-(((1-((2′-(1H-tetrazol-5-yl)biphenyl-4-yl)methyl)-2-butyl-4-chloro-1H-imidazol-5-yl)methoxy)carbonylamino)-6-aminohexanoate]	–	–
7.1 ± 1.9	> 5	–	CCCCc1nc(Cl)c(C(=O)N2CCC[C@H]2C(=O)OCCCCO[N+](=O)[O-])n1Cc1ccc(-c2ccccc2-c2nn[nH]n2)cc1 [EX. 7, (S)-4-(nitrooxy)butyl 1-(1-((2′-(2H-tetrazol-5-yl)biphenyl-4-yl)methyl)-2-butyl-4-chloro-1H-imidazole-5-carbonyl)pyrrolidine-2-carboxylate]	–	–
30.6 ± 4.7	–	–	CCCCc1nc(Cl)c(C(=O)N[C@@H](CCCNC(=N)N)C(=O)OCCCCO[N+](=O)[O-])n1Cc1ccc(-c2ccccc2-c2nn[nH]n2)cc1 [EX. 13, (S)-4-(nitrooxy)butyl 2-(1-((2′-(2H-tetrazol-5-yl)biphenyl-4-yl)methyl)-2-butyl-4-chloro-1H-imidazole-5-carboxamido)-5-guanidinopentanoate]	–	–
–	–	no effect	CCCCc1nc(Cl)c(C(=O)O)n1Cc1ccc(-c2ccccc2-c2nn[nH]n2)cc1 [EXP 3174, 2-butyl-4-chloro-1-{[2′-(1H-tetrazol-5-yl)biphenyl-4-yl]methyl}-1H-imidazole-5-carboxylic acid, reference compound]	−5	2
–	–	no effect	CCCCc1nc(Cl)c(CO)n1Cc1ccc(-c2ccccc2-c2nn[nH]n2)cc1 [Losartan, reference compound]	–	–
